Some results are limits rather than exact numbers.

From patent US20030013078A1, “HIV-1 reporter viruses and their use in assaying anti-viral compounds” (priority 2000, published 2003) come the findings set out here.

Format in all cases: cell-based, HIV-1
Test [1] concerns JRFNRLuc. Nature of the test: Inhibition of JRFNRLuc reporter virus replication in MT-2 #18 cells (renilla luciferase activity). Conditions: Human immunodeficiency virus 1, read-out: EC50, inhibition of viral replication. The method, then: (§1) MT-2 #18 cells were pelleted and infected with virus stocks at a multiplicity of infection (MOI) of 0.01 at 37° C. for 2hrs. Viruses were removed and cells were washed twice with 1×PBS before re-suspending in a final concentration of 10,000 cells/100 uL. Infectivity and drug sensitivity assays were carried out in 96 well tissue culture plates, and kinetic studies were carried out in T-25 flasks. Cell supernatants were harvested on day 0, 2, 3, 5 or 6, and passaged virus was harvested on day 2 or 3. The activity for the capsid protein p24 was analyzed according to manufacturer's protocol utilizing the Zeptometrix Retrotek product (Zeptometrix Incorporated, Buffalo, N.Y.).
(§2) Large volume cultures of MT-2 #18 cells were prepared and kept at a concentration of less than 0.5×10^6 cells per milliliter in RPMI media with 10% fetal calf serum. Test compounds were plated into a 96 well tissue culture treated clear bottom black plates (Corning Incorporated, Corning, N.Y.) at a concentration of 3 mM in 20 microliters of dionized water and 5% dimethyl sulfoxide. […]
(§3) Renilla luciferase activity was measured using the Promega Dual Luciferase Reporter kit (Promega Corp., Madison, Wis.). […] Following the substrate addition, plates were immediately sealed and read for 5 seconds per well in a Wallac Microbeta 1450 (Perkin-Elmer Wallac Incorporated, Gaithersburg, Md.) in the luminescence mode. […]

The test system of test [2] is JRFNSEAP
Nature of the test: Inhibition of JRFNSEAP reporter virus replication in MT-2 #18 cells (SEAP activity). Conditions: Human immunodeficiency virus 1, provirus JRFNSEAP (CCR5-tropic), MOI 0.01, read-out: EC50, inhibition of viral replication. How it is done:
as §1, §2
Secreted placental alkaline phosphatase (SEAP) activity was measured using the a 1,2 dioxetane alkaline phosphatase substrate called CSPD (Tropix PE Applied Biosystems, Bedford, Mass.). […] Light emission can be measured utilizing a scintillation counter or a luminometer. […]

Test [3] has as its system NL4Rluc. Nature of the test: Inhibition of NL4Rluc reporter virus replication in MT-2 #18 cells (renilla luciferase activity). The following applies: Human immunodeficiency virus 1, read-out: EC50, inhibition of viral replication. How it is done:
as §1, §2, §3

Test [4] deals with JRFNFLuc. Nature of the test: Inhibition of JRFNFLuc reporter virus infection in MT-2 #18 cells (firefly luciferase activity). Conditions: for EC50: Human immunodeficiency virus 1, read-out: EC50, inhibition of viral replication. The method, then:
as §1
Large volume cultures of MT-2 #18 cells were prepared and kept at a concentration of less than 0.5×10^6 cells per milliliter in RPMI media with 10% fetal calf serum. Test compounds were plated into a 96 well tissue culture treated clear bottom black plates (Corning Incorporated, Corning, N.Y.) at a concentration of 3 mM in 20 microliters of dionized water and 5% dimethyl sulfoxide. MT-2 #18 cells were pelleted via low speed centrifugation and re-suspended in fresh media. Reporter viruses were added to the fresh media and cells to obtain the appropriate MOI of 0.01 and a cell concentration of 1×10^4 in 160 microliters. Twenty microliters per well of 2×complete modified eagle's media was then added to compensate for the dionized water volume. 180 microliters of this mixture is then added to each test compound well and control wells. Following a 5 to 6 day incubation at 37° C., media was aspirated from the wells utilizing a 12-channel manifold.
The replication ability of the NL4Rluc and JRFNRLuc viruses were then compared to that of the JRFNFLuc virus. JRFNFLuc differs from JRFNRLuc in that it encodes the firefly luciferase gene instead of the renilla luciferase gene. JRFNFLuc was constructed in a fashion similar to that previously reported (Chen et al., 1994). Infection of T-cell lines by JRFNFLuc was carried out exactly as that was done for NL4Rluc and JRFNRLuc viruses. […] Upon passing the day 6 post infection JRFNFLuc supernatant onto uninfected MT-2 #18 cells, no firefly luciferase activity or p24 production could be detected up to seven days post inoculation (data not shown). […] The finding that this virus was not capable of inhibition by a late stage HIV-1 replication cycle inhibitor is further evidence of it not being able to replicate.

What is called EC50 is the concentration giving half of the maximal effect. Turning to `O=C1Nc2ccc(Cl)cc2[C@@](C#CC2CC2)(C(F)(F)F)O1` [Efavirenz], the EC50 stood at 0.12 nM in test [1], 0.1 nM in test [2], 0.36 nM in test [3] and 0.18 nM in test [4].
For the compound `CC(C)CN(C[C@@H](O)[C@H](Cc1ccccc1)NC(=O)O[C@H]1CCOC1)S(=O)(=O)c1ccc(N)cc1` [Amprenavir], the EC50 was 6.9 nM in test [1], 21.5 nM in test [2], 19.4 nM in test [3] and more than 10000 nM in test [4]. Also, the “Non-inhibiting concentration on JRFNFLuc relative to the EC50 on the replication competent JRFNRLuc” value in test [4] (10 uM versus JRFNRLuc) is “over 1000 fold”. Also, the “Inhibition of JRFNFLuc virus” value in test [4] (at 10 uM) is “unable to inhibit”.
